Data: patent US10087187B2, “Imidazopyridazine derivatives as PI3KB inhibitors” (Janssen Pharmaceutica NV, priority 2014, dated 2018)
Like-named read-outs stand apart in the source and are kept apart here.

Columns and labels:
PIK3Cβ_h = PIK3Cβ_h (Homo sapiens (Human), UniProt P42338); test: KINOMEscan enzyme binding assay, PIK3Cβ; conditions: DiscoveRx
Procedure: (§1) Enzyme Binding Assays (KINOMEscan®) Kinase enzyme binding affinities of compounds disclosed herein were determined using the KINOMEscan technology performed by DiscoveRx Corporation, San Diego, Calif., USA (www.kinomescan.com). Table A reports the obtained Kd values (nM), with the Kd being the inhibitor binding constant: […]

PIK3Cα_h = PIK3Cα_h (Homo sapiens (Human), UniProt P42336); test: KINOMEscan enzyme binding assay, PIK3Cα; conditions: DiscoveRx
Procedure: (§2) Enzyme Binding Assays (KINOMEscan®) Kinase enzyme binding affinities of compounds disclosed herein were determined using the KINOMEscan technology performed by DiscoveRx Corporation, San Diego, Calif., USA (www.kinomescan.com).

[1] = test system: Akt phosphorylated at Thr308 in PC-3 cells; test: Cellular assay: phosphorylation of Akt (Thr308) in PC-3 cells, MSD ELISA; format: cell-based; conditions: 60 min incubation with compound, read-out: IC50 pAkt_Thr308
Procedure: (§3) Cellular activity of PI3Kβ inhibitors was determined by quantifying the phosphorylation of Akt in PC-3 cells. Akt phosphorylated at Ser473 and Thr308 were measured using an enzyme-linked immunosorbent assay (ELISA; Meso Scale Discovery (MSD), Gaithersburg, Md.) and specific primary antibodies from MSD.
(§4) On day 1, PC3 cells (ATCC # […]) were seeded into PerkinElmer MW96 plates at 25.000 cells per well, in 75 μl complete culture medium (DMEM (Dulbecco's Modified Eagle's Medium) high glucose, AQmedia™, D0819, Sigma-Aldrich) containing 10% heat inactivated FCS (Fetal Bovine Serum) and incubated at 37° C., 5% CO2 during 24 hours. On day 2, compound or DMSO (dimethyl sulfoxide) (0.3%) was added and cells were further incubated for 60 min at 37° C., 5% CO2 in a total volume of 100 μl of medium.
(§5) The phosphoprotein assay was executed according to vendor instructions in the Phospho-Akt (Ser473) Assay Whole Cell Lysate Kit (MSD # K15100D-3) and the Phospho-Akt (Thr308) Assay Whole Cell Lysate Kit (MSD # K151DYD-3) using the lysis, blocking and wash buffer provided.
(§6) Briefly, at the end of the cell treatment period, media were removed by aspiration and adherent cells were lysed in 50 μl ice-cold lysis buffer. MSD plates are supplied pre-coated with capture antibodies for Phospho-Akt (Ser473 and Thr308). After blocking, lysates from tissue culture plates were added and plates were washed. Then, a solution containing the detection antibody (anti-total Akt conjugated with an electrochemiluminescent compound-MSD Sulfo-tag label) was added. The signals were detected using an MSD SECTOR Imager 6000 and are proportional to the phospho-Akt titres.
(§7) Data were processed. The percentage of inhibition was plotted against the log concentration of test compounds, and the sigmoidal log concentration-effect curve of best fit was calculated by nonlinear regression analysis. From these concentration-response curves, the IC50 values were calculated. Five concentrations were used for curve fitting.

PIK3Cδ_h = PIK3Cδ_h (Homo sapiens (Human), UniProt O00329); test: KINOMEscan enzyme binding assay, PIK3Cδ; conditions: DiscoveRx
Procedure: as §1

MTOR_h = MTOR_h (Homo sapiens (Human), UniProt P42345); test: KINOMEscan enzyme binding assay, MTOR; conditions: DiscoveRx
Procedure: as §2

PIK3Cγ_h = PIK3Cγ_h (Homo sapiens (Human), UniProt P48736); test: KINOMEscan enzyme binding assay, PIK3Cγ; conditions: DiscoveRx
Procedure: as §2

[2] = test system: Akt phosphorylated at Ser473 in PC-3 cells; test: Cellular assay: phosphorylation of Akt (Ser473) in PC-3 cells, MSD ELISA; format: cell-based; conditions: 60 min incubation with compound, read-out: IC50 pAkt_S473
Procedure: as §3, §4, §5, §6, §7

PIK3Cβ_h, sequence (P42338 whole entry): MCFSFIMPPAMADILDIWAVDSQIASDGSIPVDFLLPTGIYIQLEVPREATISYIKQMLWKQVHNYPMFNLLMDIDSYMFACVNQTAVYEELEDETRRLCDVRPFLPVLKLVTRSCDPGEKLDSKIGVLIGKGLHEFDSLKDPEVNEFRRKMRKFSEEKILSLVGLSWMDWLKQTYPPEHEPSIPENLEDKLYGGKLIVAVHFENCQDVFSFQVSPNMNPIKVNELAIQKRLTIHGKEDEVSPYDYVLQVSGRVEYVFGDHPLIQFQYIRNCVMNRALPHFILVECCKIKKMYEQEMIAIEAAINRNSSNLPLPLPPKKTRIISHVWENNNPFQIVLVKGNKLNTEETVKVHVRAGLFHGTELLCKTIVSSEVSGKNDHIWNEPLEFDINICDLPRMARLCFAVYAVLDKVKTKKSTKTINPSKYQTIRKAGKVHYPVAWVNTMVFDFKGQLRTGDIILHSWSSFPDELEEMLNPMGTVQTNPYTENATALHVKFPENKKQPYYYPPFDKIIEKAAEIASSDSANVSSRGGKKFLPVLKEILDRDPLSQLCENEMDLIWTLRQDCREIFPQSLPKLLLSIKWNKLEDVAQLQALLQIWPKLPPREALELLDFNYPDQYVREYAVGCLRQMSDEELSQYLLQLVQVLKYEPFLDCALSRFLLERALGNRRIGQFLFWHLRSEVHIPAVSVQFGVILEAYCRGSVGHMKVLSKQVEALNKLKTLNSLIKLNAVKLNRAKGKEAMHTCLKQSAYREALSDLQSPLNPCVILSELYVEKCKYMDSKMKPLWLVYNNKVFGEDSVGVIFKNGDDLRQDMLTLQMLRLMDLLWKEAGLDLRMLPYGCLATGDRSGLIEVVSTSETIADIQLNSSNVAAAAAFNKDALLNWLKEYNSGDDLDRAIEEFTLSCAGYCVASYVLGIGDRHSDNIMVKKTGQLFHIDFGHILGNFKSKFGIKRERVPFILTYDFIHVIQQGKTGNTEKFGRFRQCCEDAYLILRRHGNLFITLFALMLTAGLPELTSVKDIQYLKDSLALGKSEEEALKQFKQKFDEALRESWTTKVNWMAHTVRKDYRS
PIK3Cγ_h, sequence (P48736 whole entry): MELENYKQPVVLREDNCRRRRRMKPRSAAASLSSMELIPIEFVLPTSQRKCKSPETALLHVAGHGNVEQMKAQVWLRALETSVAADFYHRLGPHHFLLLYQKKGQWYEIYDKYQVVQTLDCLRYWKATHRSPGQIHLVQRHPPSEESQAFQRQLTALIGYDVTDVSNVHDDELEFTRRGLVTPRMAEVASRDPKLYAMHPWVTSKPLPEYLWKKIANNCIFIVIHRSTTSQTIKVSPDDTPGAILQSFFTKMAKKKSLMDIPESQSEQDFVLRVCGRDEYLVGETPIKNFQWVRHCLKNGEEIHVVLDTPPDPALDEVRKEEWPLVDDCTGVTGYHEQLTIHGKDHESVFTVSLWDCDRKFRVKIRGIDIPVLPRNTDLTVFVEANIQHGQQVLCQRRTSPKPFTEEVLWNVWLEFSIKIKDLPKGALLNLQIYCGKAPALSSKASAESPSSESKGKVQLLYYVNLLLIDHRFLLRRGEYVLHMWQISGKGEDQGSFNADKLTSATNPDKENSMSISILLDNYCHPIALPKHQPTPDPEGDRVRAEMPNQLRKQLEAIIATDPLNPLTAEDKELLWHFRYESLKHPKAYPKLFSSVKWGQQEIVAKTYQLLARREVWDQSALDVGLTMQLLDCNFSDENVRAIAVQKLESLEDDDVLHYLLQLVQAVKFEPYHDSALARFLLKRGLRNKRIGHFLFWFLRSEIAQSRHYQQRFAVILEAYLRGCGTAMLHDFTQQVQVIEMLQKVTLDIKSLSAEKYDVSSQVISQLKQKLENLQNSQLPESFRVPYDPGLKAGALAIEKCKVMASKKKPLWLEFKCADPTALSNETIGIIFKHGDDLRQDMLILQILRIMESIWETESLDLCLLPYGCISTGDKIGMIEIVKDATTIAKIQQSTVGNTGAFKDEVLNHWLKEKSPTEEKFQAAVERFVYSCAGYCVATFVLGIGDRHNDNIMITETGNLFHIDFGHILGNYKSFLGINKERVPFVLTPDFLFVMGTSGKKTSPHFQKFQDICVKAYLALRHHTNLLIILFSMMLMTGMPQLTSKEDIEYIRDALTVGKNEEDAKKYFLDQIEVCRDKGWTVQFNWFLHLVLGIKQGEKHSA
PIK3Cα_h, sequence (P42336 whole entry): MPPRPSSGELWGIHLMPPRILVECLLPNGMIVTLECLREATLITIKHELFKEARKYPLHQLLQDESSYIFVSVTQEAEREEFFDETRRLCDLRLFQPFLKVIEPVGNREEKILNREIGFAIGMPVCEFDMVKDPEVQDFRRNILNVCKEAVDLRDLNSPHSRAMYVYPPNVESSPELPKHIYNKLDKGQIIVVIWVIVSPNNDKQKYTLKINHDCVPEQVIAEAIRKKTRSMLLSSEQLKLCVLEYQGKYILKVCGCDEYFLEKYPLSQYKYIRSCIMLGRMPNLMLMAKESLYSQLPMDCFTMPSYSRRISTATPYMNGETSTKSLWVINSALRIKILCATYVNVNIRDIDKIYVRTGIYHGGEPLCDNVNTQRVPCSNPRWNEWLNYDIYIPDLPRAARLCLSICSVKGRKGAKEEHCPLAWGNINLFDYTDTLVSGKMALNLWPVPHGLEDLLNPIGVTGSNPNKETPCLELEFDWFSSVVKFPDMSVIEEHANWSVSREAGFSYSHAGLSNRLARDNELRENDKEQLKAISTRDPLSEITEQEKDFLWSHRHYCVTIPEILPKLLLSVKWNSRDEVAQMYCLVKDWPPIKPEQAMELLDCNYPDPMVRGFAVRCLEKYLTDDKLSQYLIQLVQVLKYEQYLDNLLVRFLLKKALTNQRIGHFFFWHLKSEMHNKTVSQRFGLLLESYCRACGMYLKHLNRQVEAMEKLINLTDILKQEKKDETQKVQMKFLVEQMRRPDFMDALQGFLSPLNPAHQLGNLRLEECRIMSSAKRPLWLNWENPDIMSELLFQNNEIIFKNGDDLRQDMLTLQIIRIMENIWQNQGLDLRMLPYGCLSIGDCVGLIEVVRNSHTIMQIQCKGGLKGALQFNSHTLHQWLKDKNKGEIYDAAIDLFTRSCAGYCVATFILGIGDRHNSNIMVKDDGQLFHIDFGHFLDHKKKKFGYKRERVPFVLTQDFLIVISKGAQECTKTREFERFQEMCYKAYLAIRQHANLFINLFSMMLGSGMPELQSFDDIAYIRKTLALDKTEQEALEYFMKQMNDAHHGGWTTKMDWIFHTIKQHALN
PIK3Cδ_h, sequence (O00329 whole entry): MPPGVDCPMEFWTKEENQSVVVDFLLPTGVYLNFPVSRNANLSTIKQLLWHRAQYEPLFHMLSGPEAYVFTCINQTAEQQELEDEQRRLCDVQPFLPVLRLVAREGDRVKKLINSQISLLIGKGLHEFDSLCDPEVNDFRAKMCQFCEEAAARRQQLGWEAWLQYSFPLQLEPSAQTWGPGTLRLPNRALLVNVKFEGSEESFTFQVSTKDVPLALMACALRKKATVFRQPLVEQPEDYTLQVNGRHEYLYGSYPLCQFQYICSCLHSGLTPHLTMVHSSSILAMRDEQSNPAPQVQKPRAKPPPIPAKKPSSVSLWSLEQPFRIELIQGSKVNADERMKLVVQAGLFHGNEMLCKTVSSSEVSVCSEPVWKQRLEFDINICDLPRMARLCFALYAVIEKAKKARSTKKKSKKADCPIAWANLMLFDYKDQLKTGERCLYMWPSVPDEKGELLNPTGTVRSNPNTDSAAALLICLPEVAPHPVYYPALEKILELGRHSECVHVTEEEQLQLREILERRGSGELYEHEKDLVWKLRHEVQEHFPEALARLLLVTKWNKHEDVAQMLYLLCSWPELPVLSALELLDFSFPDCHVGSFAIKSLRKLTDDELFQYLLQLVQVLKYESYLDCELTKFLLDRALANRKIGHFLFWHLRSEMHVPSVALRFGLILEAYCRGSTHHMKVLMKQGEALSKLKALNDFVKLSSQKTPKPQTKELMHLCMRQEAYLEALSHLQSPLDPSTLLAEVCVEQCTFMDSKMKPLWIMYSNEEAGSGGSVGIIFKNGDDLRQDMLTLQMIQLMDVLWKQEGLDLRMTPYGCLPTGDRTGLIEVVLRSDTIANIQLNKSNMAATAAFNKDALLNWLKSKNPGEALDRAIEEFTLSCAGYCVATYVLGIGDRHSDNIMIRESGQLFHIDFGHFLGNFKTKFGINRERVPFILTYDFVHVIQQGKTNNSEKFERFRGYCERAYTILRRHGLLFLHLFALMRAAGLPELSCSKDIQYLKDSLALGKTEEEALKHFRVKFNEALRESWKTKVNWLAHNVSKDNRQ

Row | Structure (SMILES) | Kd (PIK3Cβ_h) | Kd (PIK3Cα_h) | IC50 ([1]; Homo sapiens, PC-3, 1 h) | Kd (PIK3Cδ_h) | Kd (MTOR_h) | Kd (PIK3Cγ_h) | IC50 ([2]; Homo sapiens, PC-3, 1 h) | IC50 [1] | IC50 [2]
1 | Cc1c(Cc2c(CO)nc3c(-c4ncc[nH]4)cc(N4CCOCC4)nn23)cccc1C(F)(F)F [Compound 20] | 2.2 nM | 1700 nM | ~25 nM | 85 nM | > 10000 nM | 4790 nM | 33 nM | – | –
2 | Cc1nc2c(C(=O)O)cc(N3CCOC(C)C3)nn2c1Cc1cccc(C(F)(F)F)c1C (centres unmarked) [Compound 28] | 2.5 nM | 2090 nM | 380 nM | 83 nM | 21400 nM | 5500 nM | ~407 nM | – | –
3 | Cc1nc2c(C(N)=O)cc(N3CCOCC3)nn2c1Cc1cccc(C(F)(F)F)c1C [Compound 10] | 20 nM | > 30200 nM | > 513 nM | 12600 nM | > 30200 nM | > 30200 nM | 501 nM | – | –
4 | Cc1c(Cc2c(CO)nc3c(C(=O)O)cc(N4CCOCC4)nn23)cccc1C(F)(F)F [Compound 22] | 1.2 nM | 1580 nM | > 513 nM | 48 nM | 10700 nM | > 15100 nM | > 513 nM | – | –
5 | Cc1c(Cc2c(COC(=O)C(C)N)nc3c(N)cc(N4CCOCC4)nn23)cccc1C(F)(F)F (centres unmarked) [Compound 84] | 0.5 nM | 12000 nM | – | 48 nM | 7940 nM | 12600 nM | – | 98 nM | 141 nM
6 | Cc1nc2c(-c3cnc[nH]3)cc(N3CCOCC3)nn2c1Cc1cccc(C(F)(F)F)c1C [Compound 5] | 6 nM | 617 nM | ~48 nM | 316 nM | 2400 nM | 10200 nM | ~59 nM | – | –
7 | Cc1nc2c(N)cc(N3CCOCC3)nn2c1Nc1cccc(C(F)(F)F)c1CN1CCC(S(C)(=O)=O)C1 (centres unmarked) [Compound 47] | 2.5 nM | 10500 nM | 44 nM | 47 nM | > 30200 nM | 20900 nM | 59 nM | – | –
8 | Cc1c(Cc2c(C(C)O)nc3c(N)cc(N4CCOCC4)nn23)cccc1C(F)(F)F (centres unmarked) [Compound 32] | 1.8 nM | 14800 nM | 35 nM | 355 nM | 22400 nM | 12000 nM | 87 nM | – | –
9 | CC(=O)OCc1nc2c(N)cc(N3CCOCC3)nn2c1Cc1cccc(C(F)(F)F)c1C [Compound 61] | 12 nM | > 30200 nM | 151 nM | 1660 nM | > 30200 nM | > 30200 nM | 105 nM | – | –
10 | CCc1c(F)cccc1Cc1c(CO)nc2c(N)cc(N3CCOCC3)nn12 [Compound 99] | 8.3 nM | 10500 nM | 200 nM | 832 nM | 1620 nM | 3310 nM | 257 nM | – | –
11 | Cc1nc2c(N)cc(N3CCOCC3)nn2c1Nc1ccccc1N1CCOCC1 [Compound 88] | 12 nM | 11200 nM | 120 nM | 69 nM | 8710 nM | 8320 nM | – | – | –
12 | Cc1c(Cc2c(CO)nc3c(N)cc(N4CCOCC4)nn23)cccc1C(F)(F)F [Compound 14e] | – | – | – | – | – | – | – | 41 nM | 52 nM
13 | CCc1c(F)cccc1Cc1c(CNCCO)nc2c(N)cc(N3CCOCC3)nn12 [Compound 101] | – | – | > 513 nM | – | – | – | > 513 nM | – | –
14 | Cc1c(Cc2c(CO)nc3c(N)cc(N4CCOCC4)nn23)cccc1C(F)(F)F [Compound 14d] | – | – | – | – | – | – | – | 29 nM | 67 nM

Next, values leading:

Row | Kd (PIK3Cβ_h) | Kd (PIK3Cα_h) | IC50 ([1]; Homo sapiens, PC-3, 1 h) | Kd (PIK3Cδ_h) | Kd (MTOR_h) | Kd (PIK3Cγ_h) | IC50 ([2]; Homo sapiens, PC-3, 1 h) | IC50 [1] | IC50 [2] | Structure (SMILES)
15 | 1.2 nM | 26300 nM | 85 nM | 537 nM | > 30200 nM | > 30200 nM | – | – | – | Nc1cc(N2CCOCC2)nn2c(Cc3cccc(C(F)(F)F)c3C3CCN(CCO)CC3)c(CO)nc12 [Compound 105]
16 | 1.5 nM | 9330 nM | ~11 nM | 105 nM | 5370 nM | 14800 nM | 34 nM | – | – | Cc1nc2c(N)cc(N3CCOCC3)nn2c1Nc1cccc(F)c1C [Compound 44]
17 | 2.4 nM | 16600 nM | 74 nM | 513 nM | 23400 nM | > 30200 nM | ~34 nM | – | – | Cc1c(Cc2c(CN(C)CCS(C)(=O)=O)nc3c(N)cc(N4CCOCC4)nn23)cccc1C(F)(F)F [Compound 1]
18 | 9 nM | 13500 nM | ~21 nM | 331 nM | > 30200 nM | > 30200 nM | 45 nM | – | – | Cc1nc2c(N)cc(N3CCOCC3)nn2c1Nc1cccc(C(F)(F)F)c1CN1CCC2(C1)CS(=O)(=O)C2 [Compound 49]
19 | 1.4 nM | 3160 nM | – | 47 nM | – | – | – | 25 nM | 58 nM | Cc1nc2c(N)cc(N3CCOCC3)nn2c1Nc1cccc(C(F)(F)F)c1CN1CCC(O)C1 (centres unmarked) [Compound 77]
20 | 1.9 nM | 5750 nM | 33 nM | 40 nM | 10700 nM | 4790 nM | 44 nM | – | – | Cc1nc2c(N)cc(N3CCOCC3)nn2c1Nc1cccc(C(F)(F)F)c1CN1CC(O)C1 [Compound 52]
21 | 10 nM | > 10000 nM | 155 nM | > 3310 nM | > 30200 nM | > 3310 nM | 123 nM | – | – | Cc1c(Cc2c(CF)nc3c(C(N)=O)cc(N4CCOCC4)nn23)cccc1C(F)(F)F [Compound 16]
22 | 21 nM | 2690 nM | 355 nM | 955 nM | 22400 nM | 6920 nM | ~158 nM | – | – | Cc1nc2c(C(N)=O)cc(N3CCOCC3)nn2c1Cc1cccc(Cl)c1C [Compound 11]
23 | 1.7 nM | 2750 nM | 55 nM | 34 nM | > 30200 nM | 6170 nM | 98 nM | – | – | Cc1nc2c(N)cc(N3CCOCC3)nn2c1Nc1cccc(C(F)(F)F)c1CN1CC(S(C)(=O)=O)C1 [Compound 48]
24 | 2.6 nM | 1180 nM | ~42 nM | 129 nM | 2190 nM | 4570 nM | 59 nM | – | – | Cc1c(Cc2c(C(C)O)nc3c(-c4c[nH]cn4)cc(N4CCOCC4)nn23)cccc1C(F)(F)F (centres unmarked) [Compound 30]
25 | 1.5 nM | > 10000 nM | – | 253 nM | > 30200 nM | > 8130 nM | – | 38 nM | 60 nM | Cc1c(Cc2c(CO)nc3c(N)cc(N4CCOCC4)nn23)cccc1C(F)(F)F [Compound 14b]
26 | 2.1 nM | – | ~81 nM | 166 nM | 11500 nM | – | 145 nM | – | – | Cc1nc2c(N)cc(N3CCOCC3)nn2c1Nc1cccc(C(F)(F)F)c1CO [Compound 51]
27 | – | – | 26 nM | – | – | – | 28 nM | – | – | Cc1c(Cc2c(CO)nc3c(-c4cnc[nH]4)cc(N4CCOCC4)nn23)cccc1C(F)(F)F [Compound 19]
28 | 1.3 nM | 3240 nM | – | 35 nM | – | – | – | 26 nM | 51 nM | Cc1nc2c(N)cc(N3CCOCC3)nn2c1Nc1cccc(C(F)(F)F)c1CN1CCC(O)C1 (centres unmarked) [Compound 78]
29 | 2.2 nM | 4900 nM | 26 nM | 31 nM | – | – | 30 nM | – | – | Cc1nc2c(N)cc(N3CCOCC3)nn2c1Nc1cccc(C(F)(F)F)c1CN1CCC(O)C1 (centres unmarked) [Compound 74]
